Measurements published in patent US20240400986A1, “MEMBRANE BOUND COMPOSITIONS AND METHODS RELATING TO SAME” (FLAGSHIP PIONEERING INNOVATIONS VII, LLC, priority 2021, published 2024).
Counter-ions that a name gives are not always drawn. Like-named read-outs stand apart in the source and are kept apart here.

Columns and labels:
[1] = tested on: cardiomyocytic cell line derived from human ventricular heart tissue; assay: Small molecule compound screen of gigasome production in cardiomyocytic monocultures;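 for all read-outs here: gigasomes shed into the culture medium were imaged by confocal microscopy and counted as round particles lacking nuclear signal, extrapolated to the whole well, fold change is relative to DMSO vehicle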; details: for fold induction at 0.01 µM / fold induction at 0.1 µM / fold induction at 1 µM / fold induction at 10 µM: Homo sapiens, Cardiomyocyte, read-out: Fold Change of Gigasomes Produced vs. DMSO; for fold induction at 0.01 µM / fold induction at 0.1 µM / fold induction at 1 µM / fold induction at 10 µM / downregulation of gigasome production: 24 h; for Number of Gigasomes Produced / downregulation of gigasome production / Fold Change of Gigasomes Produced vs. DMSO: cardiomyocytes; for downregulation of gigasome production: doses 10-10,000 nM
[2] = tested on: cardiomyocytic cell line derived from human ventricular heart tissue; assay: Cell viability in cardiomyocyte compound screen (CellTiter-Glo); format: cell-based
Text: Cells were stained with Hoechst 34580, CellTracker Green/CellMask Green Actin and MitoTracker Deep Red to detect nuclear material, cytoplasm/F-actin, and mitochondria, respectively, and cultured in poly-L-lysine-coated 96-well glass bottom plates at 15,800 cells/cm^2 and allowed to adhere overnight. For the screening, a total of 100 randomly organized compounds (TargetMol) were divided in 5 groups. Each group included an untreated condition, a vehicular DMSO control, and a known high-gigasome producing condition to comparatively study gigasome production rates. As a cell death control group, 500 nM Staurosporine was added to induce apoptosis. Cultures were incubated for 24 hours under gigasome inducing conditions at concentrations ranging between 10 nM and 10,000 nM. […] Cells remaining in the 96-well plates were assessed for viability using CellTiter-Glo (Promega).

[3] = tested on: neuronal cell line derived from human neuroblastoma
[4] = tested on: neuronal cell line derived from human neuroblastoma; assay: Small molecule compound screen of gigasome production in neuronal monocultures; details: for Number of Gigasomes Produced / Fold Change of Gigasomes Produced vs. DMSO: neuronal cells, 24 hours
Text: To quantify and characterize gigasome production using microscopy, while tracking cell viability/phenotype, a multi-readout system was developed that allowed simultaneous analysis of gigasomes harvested from cell culture media supernatants and respective gigasome producing cell viability. […] For the screening, a total of 99 compounds (TargetMol) were divided in 5 groups. Each group included an untreated condition, a vehicular DMSO control, and a known high-gigasome producing condition to comparatively study gigasome production rates. As a cell death control group, 500 nM Staurosporine was added to induce apoptosis. Cultures were incubated for 24 hours under gigasome inducing conditions at concentrations ranging between 10 nM and 10,000 nM. Before the end of the treatment, live neuronal cultures were imaged. The Zeiss ZEN Blue software was used to distribute imaging fields of view (positions) to create an unbiased imaging sample of a well. 5 images were taken using a Zeiss LSM 900 confocal microscope. […] The BioApps ZEN software package was used to perform cell nucleus segmentation and counting. After 24 hours, gigasomes were harvested from the cell culture media by gently removing from the top of each 96-well ⅔ of the total volume without disturbing the cell layer (containing the settled gigasomes) and by adding to each well the same amount of PBS. The wells were washed twice gently, and the gigasome-containing media/PBS wash was transferred into the well of a 384-well glass bottom plate. Cells remaining in the 96-well plates were assessed for viability using CellTiter-Glo (Promega).
For gigasome analysis in 384-well plates, the Zeiss ZEN Blue software was used to distribute positions to create an unbiased imaging sample of a well. 6 images per well were taken using a Zeiss LSM 900 confocal microscope.
A watershed binary segmentation step was performed to separate grouped objects. For each particle in the mask, characteristic parameters of the particle were calculated and saved.
Particles of interest were identified by thresholding by area and circularity. […] Circularity, defined by the formula 4pi(area/perimeter^2, was set to be between 0.8 and 1, where a value of 1.0 is a perfect circle, and a value of 0 is a line. Gigasomes were identified from the particles of interest by thresholding by mean nuclear signal. The nuclear signal threshold was set using a value equal to one fourth of a threshold value calculated by the Li auto-threshold algorithm applied to the distribution of all particles of interest. Particles of interest with nuclear signal below this value were considered “negative” for nuclear material and were identified as gigasomes. A sampling factor was calculated to extrapolate the total quantity of a type of object (particles, particles of interest, gigasomes) in the well. The sampling factor was the percentage of the well's area that was imaged. […] The normalized quantity or distribution of objects was described as a quantity or distribution of objects per 1000 cells.

[5] = Table 23 (down-regulators), dose 10 nM
[6] = Table 23 (down-regulators), dose 100 nM
[7] = Table 23 (down-regulators), dose 1000 nM
[8] = Table 23 (down-regulators), dose 10000 nM
[9] = Table 23 (down-regulators), dose 10 nM, cardiomyocytes
[10] = Table 23 (down-regulators), dose 100 nM, cardiomyocytes
[11] = Table 23 (down-regulators), dose 1000 nM, cardiomyocytes
[12] = Table 23 (down-regulators), dose 10000 nM, cardiomyocytes
[13] = Table 22, dose 1000 nM, 24 hours
[14] = Table 22, dose 10000 nM, 24 hours
[15] = Table 22, dose 10 nM, cardiomyocytes, 24 hours
[16] = Table 22, dose 100 nM, 24 hours
[17] = Table 22, dose 100 nM, cardiomyocytes, 24 hours
[18] = Homo sapiens, 24 h, read-out: Fold Change of Gigasomes Produced vs. DMSO

CN(C)CCCSC(=N)N [Dimaprit dihydrochloride]
fold induction at 0.01 µM [1]: 0.75 to 1
fold induction at 0.1 µM [1]: 0.75 to 1
fold induction at 1 µM [1]: 0.5 to 0.75
fold induction at 10 µM [1]: 0.25 to 0.5
Number of Gigasomes Produced [1, 5]: 90-105
Number of Gigasomes Produced [1, 6]: 75-90
Number of Gigasomes Produced [1, 7]: 50-75
Number of Gigasomes Produced [1, 8]: 50-75
Viability [2, 9]: 100.0%
Viability [2, 10]: 100.0%
Viability [2, 11]: >75%
Viability [2, 12]: 100.0%

NC(=O)N1c2ccccc2C=Cc2ccccc21 [Carbamazepine]
fold induction at 0.01 µM [1]: 1 to 1.25
fold induction at 1 µM [1]: 1.25 to 1.5
fold induction at 10 µM [1]: 1.25 to 1.5
Number of Gigasomes Produced ([1]; Table 22, dose 10 nM, 24 hours): 200-225
Number of Gigasomes Produced [1, 13]: 250-275
Number of Gigasomes Produced [1, 14]: 250-275
Viability ([2]; human, 24 h, 10 nM): >75%
Viability ([2]; human, 24 h, 1000 nM): >75%
Viability ([2]; human, 24 h, 10000 nM): >75%

Cn1c(=O)n(-c2ccc(C(C)(C)C#N)cc2)c2c3cc(-c4cnc5ccccc5c4)ccc3ncc21 [Dactolisib]
fold induction at 10 µM [1]: 1.25 to 1.5
Number of Gigasomes Produced [1, 14]: 150-175
Viability ([2]; human, 24 h, 10000 nM): >75%

COc1cc(C(C)=O)ccc1O [Apocynin]
fold induction at 0.01 µM [1]: 1 to 1.25
fold induction at 10 µM [1]: 1 to 1.25
Number of Gigasomes Produced ([1]; Table 22, dose 10 nM, 24 hours): 150-175
Number of Gigasomes Produced [1, 14]: 150-175
Viability ([2]; human, 24 h, 10 nM): >75%
Viability ([2]; human, 24 h, 10000 nM): >75%

Cc1cc(C)c(S(=O)(=O)N(Cc2ccc(-c3cccc(S(C)(=O)=O)c3)cc2)Cc2ccc(C(F)(F)F)o2)c(C)c1 [GSK2033]
fold induction at 10 µM [1]: 1.25 to 1.5
Number of Gigasomes Produced [1, 14]: 150-175
Viability ([2]; human, 24 h, 10000 nM): 100%

COC(=O)C=Cc1ccccc1 [Methyl cinnamate]
fold induction at 1 µM [1]: 1.25 to 1.5
Number of Gigasomes Produced [1, 13]: 150-175
Viability ([2]; human, 24 h, 1000 nM): >75%

CC(N)=NCc1cccc(CN)c1.Cl.Cl [1400W dihydrochloride]
Number of Gigasomes Produced ([1]; Table 22, dose 10 nM, 24 hours): 150-175
Number of Gigasomes Produced [1, 5]: >150
Number of Gigasomes Produced [1, 6]: 90-105
Number of Gigasomes Produced [1, 7]: 90-105
Number of Gigasomes Produced [1, 8]: 50-75
Viability [2, 15]: 100%
Viability [2, 9]: 100.0%
Viability [2, 10]: 100.0%
Viability [2, 11]: 100.0%
Viability [2, 12]: 100.0%

O=C(O)CC[N+](=O)[O-] [3-Nitropropanoic acid, reference compound]
fold induction at 0.01 µM [1]: 0.75 to 1
fold induction at 0.1 µM [1]: 0.75 to 1
fold induction at 1 µM [1]: 0.25 to 0.5
fold induction at 10 µM [1]: 0.25 to 0.5
Number of Gigasomes Produced [1, 5]: 105-120
Number of Gigasomes Produced [1, 6]: 90-105
Number of Gigasomes Produced [1, 7]: 50-75
Number of Gigasomes Produced [1, 8]: 35-50
downregulation of gigasome production [1]: dose-dependent downregulation
Viability [2, 9]: >75%
Viability [2, 10]: 100.0%
Viability [2, 11]: >75%
Viability [2, 12]: 100.0%

O=C(O)c1cccnc1C(=O)O [Quinolinic acid]
fold induction at 0.1 µM [1]: 1 to 1.25
Number of Gigasomes Produced [1, 16]: 150-175
Viability [2, 17]: 100%

C/C=C1/[C@H](O[C@@H]2O[C@H](CO)[C@@H](O)[C@H](O)[C@H]2O)OC=C(C(=O)OC)[C@H]1CC(=O)OCCc1ccc(O)c(O)c1 [Oleuropein, reference compound]
Viability ([3]; human, 24 h, 10 nM): 100%
Viability ([3]; human, 24 h, 100 nM): 100%
Viability ([3]; human, 24 h, 1000 nM): >75%
Viability ([3]; human, 24 h, 10000 nM): 100%
fold induction at 0.01 µM [4, 18]: 1 to 1.25
fold induction at 0.1 µM [4, 18]: 0.75 to 1
fold induction at 1 µM [4, 18]: 0.75 to 1
fold induction at 10 µM [4, 18]: 0.5 to 0.75
Number of Gigasomes Produced ([4]; dose 10 nM): >40
Number of Gigasomes Produced ([4]; dose 100 nM): 30-35
Number of Gigasomes Produced ([4]; dose 1000 nM): 30-35
Number of Gigasomes Produced ([4]; dose 10000 nM): 25-30

O=C(Nc1ccncc1)c1cc([N+](=O)[O-])ccc1Cl [Compound T0070907]
Fold Change of Gigasomes Produced vs. DMSO ([1]; Table 22, dose 10 nM, 24 hours): 1.0-1.25
Number of Gigasomes Produced ([1]; Table 22, dose 10 nM, 24 hours): 150-175
Fold Change of Gigasomes Produced vs. DMSO [1, 16]: 1.0-1.25
Number of Gigasomes Produced [1, 16]: 150-175
Viability [2, 15]: 100%
Viability [2, 17]: 100%

N#C/C(=C\c1cn(-c2ccccc2)c2ccccc12)C(=O)O [UK-5099, reference compound]
Viability ([3]; neuronal cells, dose 10 nM, 24 hours): 100%
Viability ([3]; neuronal cells, dose 100 nM, 24 hours): 100%
Viability ([3]; neuronal cells, dose 1000 nM, 24 hours): 100%
Viability ([3]; neuronal cells, dose 10000 nM, 24 hours): 100%
downregulation of gigasome production [1]: dose-dependent downregulation
Fold Change of Gigasomes Produced vs. DMSO ([4]; dose 10 nM): 0.5-0.75
Number of Gigasomes Produced ([4]; dose 10 nM): 20-25
Fold Change of Gigasomes Produced vs. DMSO ([4]; dose 100 nM): 0.5-0.75
Number of Gigasomes Produced ([4]; dose 100 nM): 15-20
Fold Change of Gigasomes Produced vs. DMSO ([4]; dose 1000 nM): 0.5-0.75
Number of Gigasomes Produced ([4]; dose 1000 nM): 15-20
Fold Change of Gigasomes Produced vs. DMSO ([4]; dose 10000 nM): 0.25-0.5
Number of Gigasomes Produced ([4]; dose 10000 nM): 10-15
